Earlier results as cited in patent US20160303264A1, “LIPOSOMES USEFUL FOR NON-INVASIVE IMAGING AND DRUG DELIVERY” (MERRIMACK PHARMACEUTICALS, INC., priority 2013, published 2016).

Conditions: human studies

CN=C([S-])N/N=C(C)/C(C)=N/NC([S-])=NC.[64Cu+2] [^64Cu-ATSM]
adverse events or clinically detectable pharmacologic effects: No adverse events or clinically detectable pharmacologic effects | changes in vital signs or laboratory test results after injection: no clinically significant changes
